Test results taken from patent US11472808B2, “Substituted pyrrolo[1,2-c]pyrimidines as hepatitis B antiviral agents” (Enanta Pharmaceuticals, Inc., priority 2019, dated 2022).

system: HBV; assay: HepAD38 anti-HBV assay: reduction of viral product accumulation (virion DNA qPCR, HBsAg/HBeAg ELISA); type: cell-based; details: Hepatitis B virus, 120 h; HepAD38 cells; concentration reducing viral product accumulation by 50% relative to no drug controls; harvest five days after compound addition; read-out: HepAD38 EC50
Protocol: Methods: HepAD38 cells are maintained as previously reported (Ladner et al, Antimicrob. Agents Chemother. 1997, […], 1715). Briefly, cells are passaged upon attaining confluency in DMEM/F12 media in the presence of 10% FBS, Penn/Strep, 250 μg/mL G418, and 1 μg/ml tetracycline. Novel compounds are screened by first washing cells three times with PBS to remove tetracycline, and plating in 96 well plates at 35,000 cells/well. Compounds dissolved in DMSO are then diluted 1:200 into wells containing cells. Five days after compound addition, material is harvested for analysis. For an extended 8 day analysis, cells are plated and treated as described above, but media and compound are refreshed on d2 and d5 post initial treatment.
On harvest day, virion DNA is obtained by lysing with Sidestep Lysis and Stabilization Buffer and then quantified via quantitative real time PCR. Commercially available ELISA kits are used to quantitate the viral proteins HBsAg (Alpco) or HbeAg (US Biological) by following the manufacturer's recommended protocol after diluting samples to match the linear range of their respective assays. Irrespective of readout, compound concentrations that reduce viral product accumulation in the cell lysates or supernatants by 50% relative to no drug controls (EC50) are reported; EC50 ranges are as follows: A<0.1 μM; B 0.1-0.4 μM; C>0.4 μM.

Q: `C=CCN(C[C@@]1(O)CC2=C(c3ccn(C(F)F)n3)[C@H](c3ccc(F)cc3Cl)N=C(c3nccs3)N2C1)S(C)(=O)=O` [Example 128] was tested. Which EC50 did it give?
A: > 400 nM

Q: Which EC50 does the source give for `O=C(O)Cc1ccc(S(=O)(=O)N[C@H]2CC3=C(c4ccn(C(F)F)n4)[C@H](c4ccc(F)cc4Cl)N=C(c4nccs4)N3C2)cc1` [Example 37] here?
A: > 400 nM

Q: `O=C(O)c1ccc(NC(=O)N2CCN([C@H]3CC4=C(c5ccn(C(F)F)n5)[C@H](c5ccc(F)cc5Cl)N=C(c5nccs5)N4C3)CC2)cc1` [Example 47] was tested. Which EC50 did it give?
A: > 400 nM

Q: How did the EC50 turn out when `CC(C)NC(=O)N[C@H]1CC2=C(c3ccn(C(F)F)n3)[C@H](c3ccc(F)cc3Cl)N=C(c3nccs3)N2C1` [Example 204] was run?
A: < 100 nM

Q: `O=S(=O)(N[C@H]1CC2=C(c3ccn(C(F)F)n3)[C@H](c3ccc(F)cc3Cl)N=C(c3nccs3)N2C1)N1CCCC1c1cccnc1` (some centres unmarked) [Example 283] was tested. Which EC50 did it give?
A: 100 to 400 nM

Q: With `O=S(=O)(N[C@H]1CC2=C(c3ccn(C(F)F)n3)[C@H](c3ccc(F)cc3Cl)N=C(c3nccs3)N2C1)c1cccc(C(F)(F)F)c1` [Example 399] as the compound, how does the EC50 read?
A: 100 to 400 nM

Q: `O=C(O)Cc1cccc(S(=O)(=O)N[C@H]2CC3=C(c4ccn(C(F)F)n4)[C@H](c4ccc(F)cc4Cl)N=C(c4nccs4)N3C2)c1` [Example 33] was tested. Which EC50 did it give?
A: 100 to 400 nM

Q: For `O=C(N[C@H]1CC2=C(c3ccn(C(F)F)n3)[C@H](c3ccc(F)cc3Cl)N=C(c3nccs3)N2C1)c1cccc(C2CC2)n1` [Example 248], which EC50 is on record?
A: > 400 nM

Q: `O=C(N[C@H]1CC2=C(c3ccn(C(F)F)n3)[C@H](c3ccc(F)cc3Cl)N=C(c3nccs3)N2C1)N1CCC(CO)CC1` [Example 216] was tested. Which EC50 did it give?
A: 100 to 400 nM

Q: How did the EC50 turn out when `CC(C)(C)OC(=O)N1CCN(C(=O)N[C@H]2CC3=C(c4ccn(C(F)F)n4)[C@H](c4ccc(F)cc4Cl)N=C(c4nccs4)N3C2)CC1` [Example 220] was run?
A: > 400 nM

Q: With `COC(=O)[C@H]1C[C@@H](S(=O)(=O)N[C@H]2CC3=C(c4ccn(C(F)F)n4)[C@H](c4ccc(F)cc4Cl)N=C(c4nccs4)N3C2)C1` [Example 15] as the compound, how does the EC50 read?
A: 100 to 400 nM

Q: For `O=S(=O)(Nc1ccc(C(O)c2ccccn2)cc1)N[C@H]1CC2=C(c3ccn(C(F)F)n3)[C@H](c3ccc(F)cc3Cl)N=C(c3nccs3)N2C1` (some centres unmarked) [Example 348], which EC50 is on record?
A: < 100 nM

Q: For `C=CS(=O)(=O)N([C@H]1CC2=C(c3ccn(C(F)F)n3)[C@H](c3ccc(F)cc3Cl)N=C(c3nccs3)N2C1)S(=O)(=O)C=C` [Example 51], which EC50 is on record?
A: > 400 nM

Q: With `O=C1NCCN1[C@H]1CC2=C(c3ccn(C(F)F)n3)[C@H](c3ccc(F)cc3Cl)N=C(c3nccs3)N2C1` [Example 40] as the compound, how does the EC50 read?
A: 100 to 400 nM

Q: With `COC(=O)OC[C@]1(F)CC2=C(c3ccn(C(F)F)n3)[C@H](c3ccc(F)cc3Cl)N=C(c3nccs3)N2C1` [Example 182] as the compound, how does the EC50 read?
A: 100 to 400 nM

Q: `CC(C)[C@]1(O)CC[C@H](c2ccc(S(=O)(=O)N[C@H]3CC4=C(c5ccn(C(F)F)n5)[C@H](c5ccc(F)cc5Cl)N=C(c5nccs5)N4C3)cc2)CC1` [Example 414] was tested. Which EC50 did it give?
A: < 100 nM

Q: `COC(=O)CCCCS(=O)(=O)N[C@H]1CC2=C(c3ccn(C(F)F)n3)[C@H](c3ccc(F)cc3Cl)N=C(c3nccs3)N2C1` [Example 13] was tested. Which EC50 did it give?
A: 100 to 400 nM

Q: Which EC50 does the source give for `O=C(O)CCCS(=O)(=O)N[C@H]1CC2=C(c3ccn(C(F)F)n3)[C@H](c3ccc(F)cc3Cl)N=C(c3nccs3)N2C1` [Example 11] here?
A: < 100 nM

Q: How did the EC50 turn out when `CC(=O)OCCCCS(=O)(=O)N[C@H]1CC2=C(c3ccn(C(F)F)n3)[C@H](c3ccc(F)cc3Cl)N=C(c3nccs3)N2C1` [Example 279] was run?
A: < 100 nM

Q: `COC(=O)N1CCN(S(=O)(=O)N[C@H]2CC3=C(c4ccn(C(F)F)n4)[C@H](c4ccc(F)cc4Cl)N=C(c4nccs4)N3C2)CC1` [Example 152] was tested. Which EC50 did it give?
A: < 100 nM

Q: With `OC[C@]1(F)CC2=C(c3ccn(C(F)F)n3)[C@H](c3ccc(F)cc3Cl)N=C(c3nccs3)N2C1` [Example 165] as the compound, how does the EC50 read?
A: 100 to 400 nM

Q: For `O=C(N[C@H]1CC2=C(c3ccn(C(F)F)n3)[C@H](c3ccc(F)cc3Cl)N=C(c3nccs3)N2C1)C(=O)c1ccccc1` [Example 419], which EC50 is on record?
A: 100 to 400 nM

Q: Which EC50 does the source give for `O=C(N[C@H]1CC2=C(c3ccn(C(F)F)n3)[C@H](c3ccc(F)cc3Cl)N=C(c3nccs3)N2C1)N1CCCC1` [Example 209] here?
A: < 100 nM

Q: Which EC50 does the source give for `COC(=O)c1ccccc1S(=O)(=O)NC[C@@]1(F)CC2=C(c3ccn(C(F)F)n3)[C@H](c3ccc(F)cc3Cl)N=C(c3nccs3)N2C1` [Example 188] here?
A: > 400 nM

Q: With `C[C@H](NS(=O)(=O)N[C@H]1CC2=C(c3ccn(C(F)F)n3)[C@H](c3ccc(F)cc3Cl)N=C(c3nccs3)N2C1)c1ccccn1` [Example 160] as the compound, how does the EC50 read?
A: < 100 nM

Q: For `O=S(=O)(N[C@H]1CC2=C(c3ccn(C(F)F)n3)[C@H](c3ccc(F)cc3Cl)N=C(c3nccs3)N2C1)c1ccc(C(F)(F)F)cc1` [Example 406], which EC50 is on record?
A: < 100 nM

Q: For `COC(=O)c1ccc(S(=O)(=O)NCC2(F)CC3=C(c4ccn(C(F)F)n4)[C@H](c4ccc(F)cc4Cl)N=C(c4nccs4)N3C2)cc1` (some centres unmarked) [Example 191], which EC50 is on record?
A: > 400 nM

Q: How did the EC50 turn out when `COC(=O)c1cccc(S(=O)(=O)NC[C@@]2(O)CC3=C(c4ccn(C(F)F)n4)[C@H](c4ccc(F)cc4Cl)N=C(c4nccs4)N3C2)c1` [Example 131] was run?
A: 100 to 400 nM

Q: How did the EC50 turn out when `CSC[C@]1(O)CC2=C(c3ccn(C(F)F)n3)[C@H](c3ccc(F)cc3Cl)N=C(c3nccs3)N2C1` [Example 143] was run?
A: 100 to 400 nM

Q: `C=CCOC[C@@]1(O)CC2=C(c3ccn(C(F)F)n3)[C@H](c3ccc(F)cc3Cl)N=C(c3nccs3)N2C1` (single isomer, unassigned) [Example 109] was tested. Which EC50 did it give?
A: 100 to 400 nM

Q: For `CC[C@H](NS(=O)(=O)N[C@H]1CC2=C(c3ccn(C(F)F)n3)[C@H](c3ccc(F)cc3Cl)N=C(c3nccs3)N2C1)c1ccccn1` [Example 351], which EC50 is on record?
A: < 100 nM

Q: For `O=C(N[C@H]1CC2=C(c3ccn(C(F)F)n3)[C@H](c3ccc(F)cc3Cl)N=C(c3nccs3)N2C1)N1CCC(O)(c2ncc(C3CC3)s2)CC1` [Example 246], which EC50 is on record?
A: 100 to 400 nM

Q: Which EC50 does the source give for `COC(=O)C1CCCN(C(=O)C2CCCN(CCS(=O)(=O)N[C@H]3CC4=C(c5ccn(C(F)F)n5)[C@H](c5ccc(F)cc5Cl)N=C(c5nccs5)N4C3)C2)C1` (some centres unmarked) [Example 67] here?
A: > 400 nM

Q: Which EC50 does the source give for `O=C(O)c1ccc(S(=O)(=O)NCC2(F)CC3=C(c4ccn(C(F)F)n4)[C@H](c4ccc(F)cc4Cl)N=C(c4nccs4)N3C2)cc1` (some centres unmarked) [Example 192] here?
A: > 400 nM

Q: For `O/N=C/[C@@]1(F)CC2=C(c3ccn(C(F)F)n3)[C@H](c3ccc(F)cc3Cl)N=C(c3nccs3)N2C1` [Example 180], which EC50 is on record?
A: > 400 nM

Q: For `COC(=O)c1ccc(C)c(S(=O)(=O)N[C@H]2CC3=C(c4ccn(C(F)F)n4)[C@H](c4ccc(F)cc4Cl)N=C(c4nccs4)N3C2)c1` [Example 25], which EC50 is on record?
A: 100 to 400 nM

Q: How did the EC50 turn out when `Fc1ccc([C@@H]2N=C(c3nccs3)N3C[C@@H](Nc4ccccn4)CC3=C2c2ccn(C(F)F)n2)c(Cl)c1` [Example 418] was run?
A: 100 to 400 nM

Q: `O=C(N[C@H]1CC2=C(c3ccn(C(F)F)n3)[C@H](c3ccc(F)cc3Cl)N=C(c3nccs3)N2C1)OC1CCCC1` [Example 252] was tested. Which EC50 did it give?
A: > 400 nM

Q: Which EC50 does the source give for `COC(=O)c1cc(S(=O)(=O)N[C@H]2CC3=C(c4ccn(C(F)F)n4)[C@H](c4ccc(F)cc4Cl)N=C(c4nccs4)N3C2)c(C)cc1F` [Example 26] here?
A: > 400 nM

Q: For `O=S(=O)(N[C@H]1CC2=C(c3ccn(C(F)F)n3)[C@H](c3ccc(F)cc3Cl)N=C(c3nccs3)N2C1)N1CCCC1c1ccccn1` (some centres unmarked) [Example 288], which EC50 is on record?
A: < 100 nM

Q: Which EC50 does the source give for `O=C(O)C1CCN(CCS(=O)(=O)N[C@H]2CC3=C(c4ccn(C(F)F)n4)[C@H](c4ccc(F)cc4Cl)N=C(c4nccs4)N3C2)CC1` [Example 59] here?
A: 100 to 400 nM

Q: With `ONC[C@]1(O)CC2=C(c3ccn(C(F)F)n3)[C@H](c3ccc(F)cc3Cl)N=C(c3nccs3)N2C1` [Example 123] as the compound, how does the EC50 read?
A: > 400 nM

Q: `O=C(N[C@H]1CC2=C(c3ccn(C(F)F)n3)[C@H](c3ccc(F)cc3Cl)N=C(c3nccs3)N2C1)N1CCC(O)(c2ccccn2)CC1` [Example 243] was tested. Which EC50 did it give?
A: 100 to 400 nM

Q: Which EC50 does the source give for `O=S(=O)(CCCc1nnn[nH]1)N[C@H]1CC2=C(c3ccn(C(F)F)n3)[C@H](c3ccc(F)cc3Cl)N=C(c3nccs3)N2C1` [Example 137] here?
A: > 400 nM

Q: Which EC50 does the source give for `C[C@H]1CN(S(=O)(=O)N[C@H]2CC3=C(c4ccn(C(F)F)n4)[C@H](c4ccc(F)cc4Cl)N=C(c4nccs4)N3C2)C[C@@H]1C` [Example 300] here?
A: < 100 nM

Q: `CC(C)(O)[C@H]1CCCN1S(=O)(=O)N[C@H]1CC2=C(c3ccn(C(F)F)n3)[C@H](c3ccc(F)cc3Cl)N=C(c3nccs3)N2C1` [Example 284] was tested. Which EC50 did it give?
A: < 100 nM

Q: How did the EC50 turn out when `CC1(C)CCCN(S(=O)(=O)N[C@H]2CC3=C(c4ccn(C(F)F)n4)[C@H](c4ccc(F)cc4Cl)N=C(c4nccs4)N3C2)C1` [Example 292] was run?
A: < 100 nM

Q: How did the EC50 turn out when `O=C(N[C@H]1CC2=C(c3ccn(C(F)F)n3)[C@H](c3ccc(F)cc3Cl)N=C(c3nccs3)N2C1)N1CC[C@@H](O)C1` [Example 225] was run?
A: < 100 nM

Q: For `CNC(=O)OCC1(F)CC2=C(c3ccn(C(F)F)n3)[C@H](c3ccc(F)cc3Cl)N=C(c3nccs3)N2C1` (some centres unmarked) [Example 178], which EC50 is on record?
A: < 100 nM

Q: How did the EC50 turn out when `O=S(=O)(NCC1(O)CC1)N[C@H]1CC2=C(c3ccn(C(F)F)n3)[C@H](c3ccc(F)cc3Cl)N=C(c3nccs3)N2C1` [Example 158] was run?
A: 100 to 400 nM

Q: Which EC50 does the source give for `O=C(N[C@H]1CC2=C(c3ccn(C(F)F)n3)[C@H](c3ccc(F)cc3Cl)N=C(c3nccs3)N2C1)c1ccncc1` [Example 231] here?
A: < 100 nM

Q: For `O=C(CC1(S(=O)(=O)N[C@H]2CC3=C(c4ccn(C(F)F)n4)[C@H](c4ccc(F)cc4Cl)N=C(c4nccs4)N3C2)CC1)NCc1ccccn1` [Example 372], which EC50 is on record?
A: < 100 nM

Q: How did the EC50 turn out when `O=C(O)C1CCN(S(=O)(=O)N[C@H]2CC3=C(c4ccn(C(F)F)n4)[C@H](c4ccc(F)cc4Cl)N=C(c4nccs4)N3C2)CC1` [Example 90] was run?
A: < 100 nM
